Experimental data reported in patent US20260166039A1 (SCHRÖDINGER, INC., priority 2022, published 2026).

Target: T1, Wee1 kinase domain (Homo sapiens, UniProt P30291)
T1 construct: Wee1 kinase domain was purchased from Carna (catalog #05-177); purchased Carna 05-177
Experiment: Wee1 Kinase Biochemical Assay (ADP-Glo)
Conditions: 15 uM ATP
In short: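 Poly(Lys,Tyr 4:1) phosphorylation by the kinase domain is followed as ADP output (ADP-Glo) after 4 h at 25 °C, with ATP at 15 uM. Values are percent inhibition between vehicle and full-inhibition controls.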

[1] = class symbols, 1 nM Wee1 enzyme, 4 hours at 25° C.

T1 sequence (P30291 299-569 limits assumed): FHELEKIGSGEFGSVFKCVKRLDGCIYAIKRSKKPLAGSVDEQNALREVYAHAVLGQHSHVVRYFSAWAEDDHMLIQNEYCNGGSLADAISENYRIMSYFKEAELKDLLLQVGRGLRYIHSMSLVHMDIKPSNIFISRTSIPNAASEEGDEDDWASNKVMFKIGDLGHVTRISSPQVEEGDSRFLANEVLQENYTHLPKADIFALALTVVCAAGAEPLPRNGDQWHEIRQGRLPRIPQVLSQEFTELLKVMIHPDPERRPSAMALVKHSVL

IC50 [1] | IC50 (Wee1 kinase domain, ADP-Glo) | Compound
100 to 1000 nM | – | CNCc1cccc(N2c3nc(NC(=O)[C@H]4C[C@@H]4c4cccnc4)ncc3[C@@]3(C)COC(C)(C)C[C@@H]23)n1 [Example 769, (1S,2S)-2-(pyridin-3-yl)-N-((4bR,8aR)-4b,7,7-trimethyl-9-(6-((methylamino)methyl)pyridin-2-yl)-4b,5,7,8,8a,9-hexahydropyrano[3′,4′:4,5]pyrrolo[2,3-d]pyrimidin-2-yl)cyclopropane-1-carboxamide]
10 to 100 nM | – | CC1(C)C[C@@H]2N(c3cccc(N4CCCC4=O)n3)c3nc(Nc4ccc(C5CNC5)cc4)ncc3[C@]2(C)CO1 [Example 663, 1-(6-((4bS,8aS)-2-((4-(azetidin-3-yl)phenyl)amino)-4b,7,7-trimethyl-4b,7,8,8a-tetrahydropyrano[3′,4′:4,5]pyrrolo[2,3-d]pyrimidin-9(5H)-yl)pyridin-2-yl)pyrrolidin-2-one]
100 to 1000 nM | – | CNCc1cccc(N2c3nc(Nc4ccc(-n5ccnc5)c(F)c4)ncc3[C@]3(C)COC(C)(C)C[C@H]23)n1 (single isomer, unassigned) [Example 465]
100 to 1000 nM | – | CN1C[C@@H]2C[C@H]1CN2c1ccc(Nc2ncc3c(n2)N(c2cccc(N4CCCC4=O)n2)[C@H]2CC(C)(C)OC[C@@]32C)cc1F [Example 641, 1-(6-((4bS,8aS)-2-((3-fluoro-4-((1S,4S)-5-methyl-2,5-diazabicyclo[2.2.1]heptan-2-yl)phenyl)amino)-4b,7,7-trimethyl-4b,7,8,8a-tetrahydropyrano[3′,4′:4,5]pyrrolo[2,3-d]pyrimidin-9(5H)-yl)pyridin-2-yl)pyrrolidin-2-one]
100 to 1000 nM | – | CN1CC[C@@H]2CN(c3ccc(Nc4ncc5c(n4)N(c4cccc(N6CCCC6=O)n4)[C@H]4CC(C)(C)OC[C@@]54C)cc3)C[C@@H]21 [Example 687, 1-(6-((4bS,8aS)-4b,7,7-trimethyl-2-((4-((3aR,6aR)-1-methylhexahydropyrrolo[3,4-b]pyrrol-5(1H)-yl)phenyl)amino)-4b,7,8,8a-tetrahydropyrano[3′,4′:4,5]pyrrolo[2,3-d]pyrimidin-9(5H)-yl)pyridin-2-yl)pyrrolidin-2-one]
100 to 1000 nM | – | CN1C[C@@H]2C[C@H]1CN2c1ccc(Nc2ncc3c(n2)N(c2cccc(N4CCCC4=O)n2)[C@H]2CC(C)(C)OC[C@@]32C)cc1 [Example 628, 1-(6-((4bS,8aS)-4b,7,7-trimethyl-2-((4-((1S,4S)-5-methyl-2,5-diazabicyclo[2.2.1]heptan-2-yl)phenyl)amino)-4b,7,8,8a-tetrahydropyrano[3′,4′:4,5]pyrrolo[2,3-d]pyrimidin-9(5H)-yl)pyridin-2-yl)pyrrolidin-2-one]
< 10 nM | – | CN1C[C@@H]2C[C@H]1CN2c1ccc(Nc2ncc3c(n2)N(c2ccccn2)[C@@H]2CC(C)(C)OC[C@]32C)cc1 [Example 800, (4bR,8aR)-4b,7,7-trimethyl-N-(4-((1S,4S)-5-methyl-2,5-diazabicyclo[2.2.1]heptan-2-yl)phenyl)-9-(pyridin-2-yl)-4b,5,7,8,8a,9-hexahydropyrano[3′,4′:4,5]pyrrolo[2,3-d]pyrimidin-2-amine]
100 to 1000 nM | – | CN1C[C@@H]2C[C@H]1CN2c1ccc(Nc2ncc3c(n2)N(c2cccc(N4CCOC4=O)n2)[C@H]2CC(C)(C)OC[C@@]32C)cc1 (single isomer, unassigned) [Example 594]
< 10 nM | – | CC1(C)C[C@H]2N(c3cccc(N=S(C)(C)=O)n3)c3nc(Nc4ccc(N5CC6(COC6)C5)cc4)ncc3[C@@]2(C)CO1 (single isomer, unassigned) [Example 508]
< 10 nM | – | CC1(C)C[C@H]2N(c3cccc(N=S(C)(C)=O)n3)c3nc(Nc4ccn(C5CCC5)c(=O)c4)ncc3[C@@]2(C)CO1 (single isomer, unassigned) [Example 802]
10 to 100 nM | – | CN1[C@@H]2C[C@H]1CN(c1ccc(Nc3ncc4c(n3)N(c3cccc(N5CCOC5=O)n3)[C@H]3CC(C)(C)OC[C@@]43C)cc1)C2 [Example 701, 3-(6-((4bS,8aS)-4b,7,7-trimethyl-2-((4-((1R,5S)-6-methyl-3,6-diazabicyclo[3.1.1]heptan-3-yl)phenyl)amino)-4b,7,8,8a-tetrahydropyrano[3′,4′:4,5]pyrrolo[2,3-d]pyrimidin-9(5H)-yl)pyridin-2-yl)oxazolidin-2-one]
10 to 100 nM | – | CC1(C)C[C@H]2N(c3cccc(N=S(C)(C)=O)n3)c3nc(NC(=O)c4ccccc4)ncc3[C@@]2(C)CO1 (single isomer, unassigned) [Example 404]
10 to 100 nM | – | CN1CC(c2ccc(Nc3ncc4c(n3)N(c3cccc(N5CCCC5=O)n3)[C@H]3CC(C)(C)OC[C@@]43C)cc2)C1 [Example 697, 1-(6-((4bS,8aS)-4b,7,7-trimethyl-2-((4-(1-methylazetidin-3-yl)phenyl)amino)-4b,7,8,8a-tetrahydropyrano[3′,4′:4,5]pyrrolo[2,3-d]pyrimidin-9(5H)-yl)pyridin-2-yl)pyrrolidin-2-one]
– | 100 to 1000 nM | C[C@H]1COC(=O)N1c1cccc(N2c3nc(Nc4ccc(OC5CCN(C)CC5)nc4)ncc3[C@]3(C)COC(C)(C)C[C@H]23)n1 (single isomer, unassigned) [Example 334]
– | < 10 nM | CC1(C)C[C@H]2N(c3cccc(N=S(C)(C)=O)n3)c3nc(Nc4ccc5nccn5n4)ncc3[C@@]2(C)CO1 [Example 361, ((6-((4bR,8aR)-2-(imidazo[1,2-b]pyridazin-6-ylamino)-4b,7,7-trimethyl-4b,7,8,8a-tetrahydropyrano[3′,4′:4,5]pyrrolo[2,3-d]pyrimidin-9(5H)-yl)pyridin-2-yl)imino)dimethyl-l6-sulfanone]
100 to 1000 nM | – | CNCc1cccc(N2c3nc(Nc4ccc([C@H]5CCNC5)cc4)ncc3[C@]3(C)COC(C)(C)C[C@H]23)n1 (single isomer, unassigned) [Example 451]
10 to 100 nM | – | CN1CC[C@H]2CN(c3ccc(Nc4ncc5c(n4)N(c4cccc(N6CCOC6=O)n4)[C@H]4CC(C)(C)OC[C@@]54C)cc3)C[C@H]21 [Example 685, 3-(6-((4bS,8aS)-4b,7,7-trimethyl-2-((4-((3aS,6aS)-1-methylhexahydropyrrolo[3,4-b]pyrrol-5(1H)-yl)phenyl)amino)-4b,7,8,8a-tetrahydropyrano[3′,4′:4,5]pyrrolo[2,3-d]pyrimidin-9(5H)-yl)pyridin-2-yl)oxazolidin-2-one]

Second part, the molecule before the results:

Compound | IC50 [1] | IC50 (Wee1 kinase domain, ADP-Glo)
CNCc1cccc(N2c3nc(Nc4ccc(N5C[C@H]6C[C@@H]5CO6)cc4)ncc3[C@]3(C)COC(C)(C)C[C@H]23)n1 (single isomer, unassigned) [Example 43] | – | 10 to 100 nM
CN1CC[C@H](Oc2ccc(Nc3ncc4c(n3)N(c3cccc(N=S(C)(C)=O)n3)[C@H]3CC(C)(C)OC[C@@]43C)cc2)C1 (single isomer, unassigned) [Example 158] | – | 100 to 1000 nM
CNCc1cccc(N2c3nc(Nc4ccc(N5C(=O)CC[C@@H]5C)cc4)ncc3[C@]3(C)COC(C)(C)C[C@H]23)n1 (single isomer, unassigned) [Example 27] | – | ≥ 1000 nM
CNCc1cccc(N2c3nc(Nc4ccc([C@@H]5CCC(=O)N5C)cc4)ncc3[C@]3(C)COC(C)(C)C[C@H]23)n1 (single isomer, unassigned) [Example 51] | – | ≥ 1000 nM
CNCc1cccc(N2c3nc(Nc4ccc(C(C)(C)C(=O)N(C)C)cc4)ncc3[C@]3(C)COC(C)(C)C[C@H]23)n1 (single isomer, unassigned) [Example 75] | – | ≥ 1000 nM
C[C@H]1COC(=O)N1c1cccc(N2c3nc(Nc4ccc(O[C@H]5CCNC5)cc4)ncc3[C@]3(C)COC(C)(C)C[C@H]23)n1 (single isomer, unassigned) [Example 328] | – | 100 to 1000 nM
Cc1cc(Nc2ncc3c(n2)N(c2cccc(N=S(C)(C)=O)n2)[C@H]2CC(C)(C)OC[C@@]32C)ccc1[C@H]1CCNC1 (single isomer, unassigned) [Example 150] | – | 10 to 100 nM
C[C@H]1COC(=O)N1c1cccc(N2c3nc(Nc4ccc(N5CCN(C)CC5)cc4)ncc3[C@@]3(C)COC(C)(C)C[C@@H]23)n1 (single isomer, unassigned) [Example 234] | – | 10 to 100 nM
CNCc1cccc(N2c3nc(Nc4ccc(C5CCOCC5)cc4)ncc3[C@]3(C)COC(C)(C)C[C@H]23)n1 (single isomer, unassigned) [Example 36] | – | 10 to 100 nM
CN1Cc2cc(Nc3ncc4c(n3)N(c3cccc(N=S(C)(C)=O)n3)[C@H]3CC(C)(C)OC[C@@]43C)cnc2C1 (single isomer, unassigned) [Example 187] | – | ≥ 1000 nM
CNCc1cccc(N2c3nc(Nc4ccc([C@@]5(C)CCN(C)C5=O)cc4)ncc3[C@]3(C)COC(C)(C)C[C@H]23)n1 (single isomer, unassigned) [Example 79] | – | 100 to 1000 nM
CNCc1cccc(N2c3nc(Nc4ccc([C@@H]5CC(=O)N(C)C5)cc4)ncc3[C@]3(C)COC(C)(C)C[C@H]23)n1 (single isomer, unassigned) [Example 70] | – | 10 to 100 nM
CN1C[C@@H]2CN(c3ccc(Nc4ncc5c(n4)N(c4cccc(N=S(C)(C)=O)n4)[C@H]4CC(C)(C)OC[C@@]54C)cc3)C[C@@H]2C1 (single isomer, unassigned) [Example 218] | – | 10 to 100 nM
CNCc1cccc(N2c3nc(Nc4ccc([C@@H]5CCCO5)cc4)ncc3[C@@]3(C)COC(C)(C)C[C@@H]23)n1 (single isomer, unassigned) [Example 59] | – | < 10 nM
CC1(C)C[C@@H]2N(c3cccc(N=S(C)(C)=O)n3)c3nc(Nc4ccc(C5CNC5)cc4)ncc3[C@]2(C)CO1 (single isomer, unassigned) [Example 164] | – | 10 to 100 nM
Cc1cc(Nc2ncc3c(n2)N(c2cccc(N=S(C)(C)=O)n2)[C@H]2CC(C)(C)OC[C@@]32C)ccc1C1CCN(C)CC1 (single isomer, unassigned) [Example 103] | – | 10 to 100 nM
CN1CCc2ccc(Nc3ncc4c(n3)N(c3cccc(N=S(C)(C)=O)n3)[C@H]3CC(C)(C)OC[C@@]43C)cc2C1 (single isomer, unassigned) [Example 110] | – | 10 to 100 nM
C[C@H]1COC(=O)N1c1cccc(N2c3nc(Nc4ccc(O[C@@H]5CCN(C)C5)nc4)ncc3[C@]3(C)COC(C)(C)C[C@H]23)n1 (single isomer, unassigned) [Example 282] | – | 100 to 1000 nM
